Source: ChEMBL document CHEMBL1153832, “Identification and characterization of UK-201844, a novel inhibitor that interferes with human immunodeficiency virus type 1 gp160 processing” (Antimicrob Agents Chemother, 2007)
The source made the active and inactive calls. The calls are words filed in the database; no cut-off is given here.

Columns and labels:
[1] = system: Human immunodeficiency virus 1; assay: Antiviral activity against recombinant HIV1 NL4-3 bearing envelope with S162N, N302Y substitutions infected in human MT2 cells by virus production assay; assay type: functional, organism-based
[2] = system: Human immunodeficiency virus 1; assay: Antiviral activity against HIV1 NL4-3 infected in human C8166 cells; assay type: functional, organism-based
[3] = system: Human immunodeficiency virus 1; assay: Inhibition of HIV1 NL4-3 proteins incorporation into virions transfected in HEK293 cells assessed as unprocessed gp160 Env protein at 15 uM by Western blot; assay type: functional, organism-based
[4] = system: Human immunodeficiency virus 1; assay: Ratio of EC50 for recombinant HIV1 NL4-3/3BCt chimeric virus to EC50 for parental HIV1 NL4-3 virus; assay type: functional
[5] = system: Human immunodeficiency virus 1; assay: Antiviral activity against HIV1 NL4-3 transfected in HEK293 cells assessed as inhibition of viral envelope gp160 processing at 7.5 uM by Western blot; assay type: functional; conditions: Human immunodeficiency virus 1, NL4-3, HEK293
[6] = system: Human immunodeficiency virus 1; assay: Antiviral activity against recombinant HIV1 NL4/3BCt chimeric virus infected in human MT2 cells assessed as inhibition of virus-induced CPE; assay type: functional, organism-based; conditions: Human immunodeficiency virus 1, NL4/3BCt
[7] = system: Human immunodeficiency virus 1; assay: Ratio of EC50 for recombinant HIV1 NL4-3 bearing envelope with G354E, D474N substitutions to EC50 for parental HIV1 NL4-3; assay type: functional
[8] = system: Human immunodeficiency virus 1; assay: Antiviral activity against HIV1 NL4-3 infected in human MT2 cells assessed as inhibition of viral p24 antigen level at 0.5 uM by Western blot; assay type: functional; conditions: Human immunodeficiency virus 1, NL4-3, MT2
[9] = Cytotoxicity against human MT2 cells after 6 days by XTT assay; assay type: cell-based
[10] = system: Human immunodeficiency virus 1; assay: Antiviral activity against recombinant HIV1 NL4/3BNt chimeric virus infected in human MT2 cells assessed as inhibition of virus-induced CPE; assay type: functional, organism-based; conditions: Human immunodeficiency virus 1, NL4/3BNt
[11] = Therapeutic index, ratio of CC50 for human MT2 cells to EC50 for HIV1 NL4-3; assay type: cell-based; conditions: read-out: TI
[12] = Therapeutic index, ratio of CC50 for human PM1 cells to EC50 for HIV1 NL4-3; assay type: cell-based; conditions: read-out: TI
[13] = Therapeutic index, ratio of CC50 for human MT2 cells to EC50 for HIV1 Ba-L; assay type: cell-based; conditions: read-out: TI
[14] = system: Human immunodeficiency virus 1; assay: Antiviral activity against recombinant HIV1 NL4-3 bearing envelope with G354E, V372E, D474N substitutions infected in human MT2 cells by virus production assay; assay type: functional, organism-based
[15] = system: Human immunodeficiency virus 1; assay: Antiviral activity against HIV1 bearing VSV envelope infected in human MT2 cells assessed as inhibition of VSV-envelope packed virions at 15 uM after 72 hrs by virus production assay relative to control; assay type: functional; conditions: Human immunodeficiency virus 1, MT2, 72 h
[16] = system: Human immunodeficiency virus 1; assay: Antiviral activity against recombinant HIV1 NL4-3 bearing envelope with G354E, V372E substitutions infected in human MT2 cells by virus production assay; assay type: functional, organism-based
[17] = system: Human immunodeficiency virus 1; assay: Ratio of EC50 for recombinant HIV1 NL4-3 bearing envelope with D474N substitution to EC50 for parental HIV1 NL4-3; assay type: functional
[18] = system: Human immunodeficiency virus 1; assay: Antiviral activity against HIV1 clade-B clinical isolate up to its cytotoxic concentration; assay type: functional, organism-based
[19] = system: Human immunodeficiency virus 1; assay: Antiviral activity against recombinant HIV1 NL4/3B5'Env chimeric virus infected in human MT2 cells assessed as inhibition of virus-induced CPE; assay type: functional, organism-based; conditions: Human immunodeficiency virus 1, NL4/3B5'Env
[20] = system: Human immunodeficiency virus 1; assay: Antiviral activity against recombinant HIV1 NL4-3 bearing envelope with S162N, N302Y, G354E, V372E, D474N substitutions infected in human MT2 cells by virus production assay; assay type: functional, organism-based
[21] = system: Human immunodeficiency virus 1; assay: Ratio of EC50 for recombinant HIV1 NL4-3 bearing envelope with G354E, V372E, D474N substitutions to EC50 for parental HIV1 NL4-3; assay type: functional
[22] = system: Human immunodeficiency virus 1; assay: Antiviral activity against recombinant HIV1 NL4-3 bearing envelope with V372E substitution infected in human MT2 cells by virus production assay; assay type: functional, organism-based
[23] = system: Human immunodeficiency virus 1; assay: Antiviral activity against recombinant HIV1 NL4-3 bearing envelope with D474N substitution infected in human MT2 cells by virus production assay; assay type: functional, organism-based
[24] = system: Human immunodeficiency virus 1; assay: Antiviral activity against HIV1 NL4-3 infected in human MT2 cells assessed as inhibition of viral p24 antigen level at 1.0 uM by Western blot; assay type: functional; conditions: Human immunodeficiency virus 1, NL4-3, MT2
[25] = system: Human immunodeficiency virus 1; assay: Ratio of EC50 for recombinant HIV1 NL4-3 bearing envelope with V372E substitution to EC50 for parental HIV1 NL4-3; assay type: functional
[26] = system: Human immunodeficiency virus 1; assay: Ratio of EC50 for recombinant HIV1 NL4-3 bearing envelope with G354E substitution to EC50 for parental HIV1 NL4-3; assay type: functional
[27] = system: Human immunodeficiency virus 1; assay: Antiviral activity against HIV1 Ba-L infected in human PM1 cells assessed as inhibition of viral p24 antigen production after 5 days; assay type: functional, organism-based; conditions: Human immunodeficiency virus 1, Ba-L, PM1, 120 h
[28] = system: Human immunodeficiency virus 1; assay: Antiviral activity against HIV1 NL4-3 transfected in HEK293 cells assessed as inhibition of viral envelope gp160 processing at 1.0 uM by Western blot; assay type: functional; conditions: Human immunodeficiency virus 1, NL4-3, HEK293
[29] = system: Human immunodeficiency virus 1; assay: Antiviral activity against recombinant HIV1 NL4-3 bearing envelope with G354E, D474N substitutions infected in human MT2 cells by virus production assay; assay type: functional, organism-based
[30] = system: Human immunodeficiency virus 1; assay: Antiviral activity against HIV1 NL4-3 infected in human CEM-T4 cells; assay type: functional, organism-based
[31] = system: Human immunodeficiency virus 1; assay: Antiviral activity against HIV1 NL4-3 infected in human MT2 cells assessed as inhibition of viral p24 antigen level at 15 uM by Western blot; assay type: functional; conditions: Human immunodeficiency virus 1, NL4-3, MT2
[32] = system: Human immunodeficiency virus 1; assay: Ratio of EC50 for recombinant HIV1 NL4-3/3BFL chimeric virus to EC50 for parental HIV1 NL4-3 virus; assay type: functional
[33] = system: Human immunodeficiency virus 1; assay: Antiviral activity against HIV1 bearing HIV1 NL4-3 envelope infected in human MT2 cells assessed as inhibition of HIV-envelope packed virions at 15 uM after 72 hrs by virus production assay relative to control; assay type: functional; conditions: Human immunodeficiency virus 1, MT2, 72 h
[34] = system: Human immunodeficiency virus 1; assay: Antiviral activity against HIV1 NL4-3 infected in human MT2 cells assessed as inhibition of viral p24 antigen level at 7.5 uM by Western blot; assay type: functional; conditions: Human immunodeficiency virus 1, NL4-3, MT2
[35] = system: Human immunodeficiency virus 1; assay: Antiviral activity against HIV1 3B infected in human MT2 cells assessed as inhibition of virus-induced cytopathic effect after 6 days by XTT assay; assay type: functional, organism-based; conditions: Human immunodeficiency virus 1, 3B, MT2, 144 h
[36] = system: Human immunodeficiency virus 1; assay: Ratio of EC50 for recombinant HIV1 NL4-3 bearing envelope with V372E, D474N substitutions to EC50 for parental HIV1 NL4-3; assay type: functional
[37] = system: Human immunodeficiency virus 1; assay: Ratio of EC50 for recombinant HIV1 NL4-3/3B5'Env chimeric virus to EC50 for parental HIV1 NL4-3 virus; assay type: functional
[38] = system: Human immunodeficiency virus 1; assay: Antiviral activity against HIV1 NL4-3 infected in human 174XCEM T-cells; assay type: functional, organism-based
[39] = system: Human immunodeficiency virus 1; assay: Ratio of EC50 for recombinant HIV1 NL4-3 bearing envelope with G354E, V372E substitutions to EC50 for parental HIV1 NL4-3; assay type: functional
[40] = system: Human immunodeficiency virus 1; assay: Antiviral activity against HIV1 NL4-3 transfected in HEK293 cells assessed as inhibition of viral envelope gp160 processing at 15 uM by Western blot; assay type: functional; conditions: Human immunodeficiency virus 1, NL4-3, HEK293

NC(=O)C(c1ccccc1)(c1ccccc1)[C@H]1CCCN(CCc2ccc3c(c2)CCO3)C1
EC50 [1]: 8.6 µM | EC50 [2]: Active | Activity [3]: Active | fold change (FC) [4]: 4 | inhibition at 7.5 µM [5]: 99% | EC50 [6]: 5.3 µM | fold change (FC) [7]: >31 | inhibition at 0.5 µM [8]: 12% | CC50 at 144 h [9]: 53 µM | EC50 [10]: 1.2 µM | selectivity ratio [11]: 41 | selectivity ratio [12]: 17 | selectivity ratio [13]: 2 | EC50 [14]: > 32 µM | inhibition in vivo at 15 µM [15]: -6% | EC50 [16]: 2.2 µM | fold change (FC) [17]: 6 | Activity [18]: inactive | EC50 [19]: > 32 µM | EC50 [20]: > 32 µM | fold change (FC) [21]: >31 | EC50 [22]: 0.9 µM | EC50 [23]: 6.1 µM | inhibition at 1 µM [24]: 44% | fold change (FC) [25]: 0.9 | fold change (FC) [26]: 0.9 | EC50 [27]: 24 µM | inhibition at 1 µM [28]: 44% | EC50 [29]: > 32 µM | EC50 [30]: Active | inhibition at 15 µM [31]: 100% | fold change (FC) [32]: >25 | inhibition in vivo at 15 µM [33]: 99.5% | inhibition at 7.5 µM [34]: 99% | EC50 [35]: 32 µM | fold change (FC) [36]: >31 | fold change (FC) [37]: >25 | EC50 [38]: Active | fold change (FC) [39]: 2.1 | inhibition at 15 µM [40]: 100%
